Data from the supplement of paper PMC10307832.

Key:
Assay in all cases: relative viability (nuclei count vs DMSO), 5 days (fraction); higher = more cells survive
[1] = compound: C1=CC=C(C(=C1)C2=CC=C(C=C2)C3=CSC4=C3C(=C(C(=O)N4)C#N)O)O + O=C(c1cc(Cc2n[nH]c(=O)c3ccccc23)ccc1F)N1CCN(C(=O)C2CC2)CC1 [Olaparib] (partner 8 µM)
How it was run: (§1)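 Lung cancer cell lines in 1536-well plates got either a single drug or a fixed anchor-drug dose together with five library-drug doses (not always all listed) in √10 steps, by pin tool, on the day after seeding. Nuclei were counted after 5 days, and relative viability is the treated-to-vehicle ratio of nuclei counts. Values are medians of duplicate plates.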

TGX 221 + Phenformin = compound: CC1=CN2C(=O)C=C(N=C2C(=C1)C(C)NC3=CC=CC=C3)N4CCOCC4 [TGX 221] + N=C(N)NC(=N)NCCc1ccccc1 [Phenformin] (partner 250 µM)
How it was run: as §1

TGX 221 + Pemetrexed = compound: CC1=CN2C(=O)C=C(N=C2C(=C1)C(C)NC3=CC=CC=C3)N4CCOCC4 [TGX 221] + Nc1nc2[nH]cc(CCc3ccc(C(=O)N[C@@H](CCC(=O)O)C(=O)O)cc3)c2c(=O)[nH]1 [Pemetrexed] (partner 0.2 µM)
How it was run: as §1

TGX 221 + Olaparib = compound: CC1=CN2C(=O)C=C(N=C2C(=C1)C(C)NC3=CC=CC=C3)N4CCOCC4 [TGX 221] + O=C(c1cc(Cc2n[nH]c(=O)c3ccccc23)ccc1F)N1CCN(C(=O)C2CC2)CC1 [Olaparib] (partner 8 µM)
How it was run: as §1

Cell Line | relative viability ([1]; first compound 0.08 µM) | relative viability ([1]; first compound 0.253 µM) | relative viability ([1]; first compound 0.8 µM) | relative viability ([1]; first compound 2.53 µM) | relative viability ([1]; first compound 8 µM) | relative viability (TGX 221 + Phenformin; first compound 0.08 µM) | relative viability (TGX 221 + Phenformin; first compound 0.253 µM) | relative viability (TGX 221 + Phenformin; first compound 0.8 µM) | relative viability (TGX 221 + Phenformin; first compound 2.53 µM) | relative viability (TGX 221 + Phenformin; first compound 8 µM) | relative viability (TGX 221 + Pemetrexed; first compound 0.08 µM) | relative viability (TGX 221 + Pemetrexed; first compound 0.253 µM) | relative viability (TGX 221 + Pemetrexed; first compound 0.8 µM) | relative viability (TGX 221 + Pemetrexed; first compound 2.53 µM) | relative viability (TGX 221 + Pemetrexed; first compound 8 µM) | relative viability (TGX 221 + Olaparib; first compound 0.08 µM) | relative viability (TGX 221 + Olaparib; first compound 0.253 µM) | relative viability (TGX 221 + Olaparib; first compound 0.8 µM) | relative viability (TGX 221 + Olaparib; first compound 2.53 µM) | relative viability (TGX 221 + Olaparib; first compound 8 µM)
201T | 0.652 | 0.812 | 0.828 | 0.74 | 0.885 | 0.459 | 0.436 | 0.428 | 0.434 | 0.439 | 0.324 | 0.373 | 0.318 | 0.351 | 0.374 | 0.837 | 0.834 | 0.821 | 0.834 | 0.777
HCC-366 | – | 0.384 | 0.369 | 0.41 | 0.302 | 0.617 | 0.575 | 0.642 | 0.572 | 0.613 | 0.158 | 0.146 | 0.184 | 0.165 | 0.16 | 0.331 | 0.303 | 0.407 | 0.344 | 0.357
NCI-H1944 | 0.465 | 0.433 | 0.386 | 0.464 | 0.373 | 0.188 | 0.196 | 0.191 | 0.186 | 0.184 | – | 0.552 | 0.533 | 0.6 | 0.562 | – | 0.364 | 0.409 | 0.371 | 0.379
NCI-H1651 | 0.185 | 0.182 | 0.197 | 0.186 | 0.16 | 0.283 | 0.265 | 0.437 | 0.316 | 0.286 | 0.54 | 0.628 | 0.438 | 0.517 | 0.586 | 0.183 | 0.199 | 0.166 | 0.161 | 0.18
LCLC-97TM1 | 0.223 | 0.357 | 0.431 | 0.429 | 0.445 | 0.394 | 0.399 | 0.419 | 0.405 | 0.418 | 0.167 | 0.169 | 0.173 | 0.197 | 0.179 | 0.403 | 0.423 | 0.364 | 0.304 | 0.31
LC-2-ad | 0.702 | 0.899 | 0.701 | 0.744 | 0.76 | 0.556 | 0.526 | 0.569 | 0.67 | 0.599 | 0.272 | 0.282 | 0.287 | 0.259 | 0.265 | 0.732 | 0.69 | 0.832 | 0.745 | 0.73
NCI-H2347 | 0.645 | 0.632 | 0.569 | 0.634 | 0.579 | 0.427 | 0.385 | 0.389 | 0.234 | 0.213 | 0.467 | 0.414 | 0.445 | 0.386 | 0.389 | 0.592 | 0.563 | 0.521 | 0.528 | 0.457
NCI-H2009 | 0.649 | 0.668 | 0.924 | 0.591 | 0.714 | 0.476 | 0.506 | 0.487 | 0.492 | 0.407 | 0.943 | 1.06 | 1.08 | 1.1 | 0.938 | 0.685 | 0.746 | 0.69 | 0.639 | 0.537
NCI-H1650 | 0.716 | 1.03 | 0.742 | 0.759 | 0.645 | 0.419 | 0.3 | 0.377 | 0.382 | 0.255 | 0.394 | 0.408 | 0.324 | 0.336 | 0.28 | 0.684 | 0.704 | 0.954 | 0.719 | 0.642
NCI-H650 | 0.42 | 0.375 | 0.402 | 0.495 | 0.432 | 0.433 | 0.461 | 0.404 | 0.417 | 0.439 | 0.87 | 0.894 | 0.919 | 0.882 | 0.926 | 0.409 | 0.359 | 0.371 | 0.348 | 0.334
NCI-H460 | 0.341 | 0.406 | 0.331 | 0.452 | 0.434 | 0.508 | 0.466 | 0.53 | 0.536 | 0.467 | 0.0673 | 0.0618 | 0.0662 | 0.0757 | 0.0781 | 0.4 | 0.438 | 0.389 | 0.405 | 0.38
HOP-62 | 0.592 | 0.471 | 0.515 | 0.844 | 0.233 | 0.641 | 0.639 | 0.728 | 0.714 | 0.777 | 0.315 | 0.279 | 0.289 | 0.438 | 0.376 | 0.408 | 0.435 | 0.536 | 0.707 | 0.585
NCI-H1975 | 0.692 | 0.901 | 0.796 | 0.893 | 0.535 | 0.395 | 0.402 | 0.389 | 0.399 | 0.366 | 0.306 | 0.26 | 0.293 | 0.297 | 0.273 | 0.757 | 0.747 | 0.802 | 0.679 | 0.659
NCI-H838 | 0.522 | 0.963 | 0.811 | 0.784 | 0.773 | 0.607 | 0.534 | 0.496 | 0.471 | 0.428 | 0.255 | 0.232 | 0.235 | 0.232 | 0.231 | 0.758 | 0.717 | 0.767 | 0.634 | 0.553
NCI-H2085 | 0.754 | 0.847 | 0.771 | 0.796 | 0.702 | 0.817 | 0.562 | 0.588 | 0.462 | 0.425 | 0.932 | 0.759 | 0.615 | 0.523 | 0.422 | 0.802 | 0.75 | 0.684 | 0.536 | 0.439
NCI-H3122 | 0.715 | 0.675 | 0.573 | 0.645 | 0.45 | 0.366 | 0.386 | 0.396 | 0.363 | 0.366 | 0.198 | 0.203 | 0.201 | 0.206 | 0.207 | 0.596 | 0.625 | 0.596 | 0.562 | 0.643
